According to paper PMC4126480, “Evaluation of drug interaction potential of Labisia pumila (Kacip Fatimah) and its constituents” (Frontiers in Pharmacology, 2014):
“And” between values parts separate entries of the source, which are not always exact repeats. Identical values can stand only once.

Assays:
CYP2C19 [1] = molecular target: T1, CYP2C19 (Homo sapiens, UniProt P33261); assay: Prediction of in vivo HDI from in vitro results, CYP2C19; design: key to Likelihood of causing HDI: If the IC50 values were lower than the GIT or plasma concentration, then the test compound or extract is likely to cause HDI in vivo; conditions: for Likelihood of causing HDI: CYP2C19, IC50 compared with estimated GIT and plasma concentrations; for Plasma concentration: Table 3, CYP2C19 section
T1 construct: purchased BD Gentest (Woburn, MA, USA); host or cells: baculovirus expression system
Protocol: (§1) All assumptions to predict the HDI potential of KF methanolic extract and its constituents were according to previously published report ([Awortwe et al., 2014]). The % yield was calculated from the amounts extracted from the KF roots ([Ali and Khan, 2011]). The human GIT volume is 250 mL and plasma volume is about 3 L. The commonly used maximum dose of KF extract capsules is 560 mg per day ([Abdul Kadir et al., 2012]) and accordingly we estimated the concentration per dose, GIT, and plasma concentrations of extract and its constituents. We then compared the in vitro IC50 values obtained from recombinant CYPs with estimated GIT and plasma concentrations. If the IC50 values were lower than the GIT or plasma concentration, then the test compound or extract is likely to cause HDI in vivo.

CYP2D6 = molecular target: T2, CYP2D6 (Homo sapiens, UniProt P10635); assay: Prediction of in vivo HDI from in vitro results, CYP2D6; conditions: for Likelihood of causing HDI: CYP2D6, IC50 compared with estimated GIT and plasma concentrations; for Plasma concentration: Table 3, CYP2D6 section
T2 construct: purchased BD Gentest (Woburn, MA, USA); host or cells: baculovirus expression system
Protocol: as §1

CYP2C19 [2] = molecular target: T1, CYP2C19; assay: Reversible inhibition (co-incubation assay) of recombinant CYP2C19; assay type: in vitro ADME
Protocol: (§2) The assay for reversible inhibition was conducted in a total volume of 200 μL in 96-well microplates. The assay conditions, enzyme and substrate concentrations were similar as reported earlier ([Crespi et al., 1997]; [Manda et al., 2013]). Test samples or positive controls were serially diluted in a solution (100 μL) of cofactors mix, control protein (0.05 mg of protein/mL), and G-6-PDH to achieve six concentrations (100-0.4 μM or μg/mL). Initial readings were taken to record any inherent fluorescence and the plates were incubated at 37°C for 10 min. Reaction was initiated by the addition of enzyme substrate mixture (100 μL) followed by incubation for 15, 30, or 45 min. The reaction was terminated by the addition of 75 μL of ice cold acetonitrile/0.5 M Tris base (80:20). Fluorescence was measured on Spectramax M5 plate reader (Molecular Devices, Sunnyvale, CA, USA) at specified excitation and emission wavelengths for each substrate. IC50 values (co-incubation assay) were obtained from concentration-response curves generated by plotting concentration versus % inhibition.

CYP3A4 = molecular target: T3, CYP3A4 (Homo sapiens, UniProt P08684); assay: Time dependent inhibition (pre-incubation assay) of recombinant CYP3A4; assay type: in vitro ADME
T3 construct: purchased BD Gentest (Woburn, MA, USA); host or cells: baculovirus expression system
Protocol: The reaction mixture (180–190 μL), consisting of test sample, recombinant enzyme, control protein (0.05 mg of protein/mL), cofactor mix, G-6-PDH, and 50 mM potassium phosphate buffer (pH 7.4) was pre-incubated for 30 min followed by addition of respective fluorescent substrates (10–20 μL) and further incubation for 15 (CYP1A2), 30 (CYP3A4), or 45 (CYP 2C9 and 2C19) min. The reaction was terminated by addition of 75 μL of ice cold acetonitrile/0.5 M Tris base (80:20) and fluorescence was measured as above. IC50 values (pre-incubation assay) were obtained as above. The shift in the concentration-response curve was calculated as the ratio of IC50 (co-incubation)/IC50 (pre-incubation).

CYP1A2 = molecular target: T4, CYP1A2 (Homo sapiens, UniProt P05177); assay: Reversible inhibition of recombinant CYP1A2; assay type: in vitro ADME
T4 construct: purchased BD Gentest (Woburn, MA, USA); host or cells: baculovirus expression system
T4 sequence (P05177 1-516): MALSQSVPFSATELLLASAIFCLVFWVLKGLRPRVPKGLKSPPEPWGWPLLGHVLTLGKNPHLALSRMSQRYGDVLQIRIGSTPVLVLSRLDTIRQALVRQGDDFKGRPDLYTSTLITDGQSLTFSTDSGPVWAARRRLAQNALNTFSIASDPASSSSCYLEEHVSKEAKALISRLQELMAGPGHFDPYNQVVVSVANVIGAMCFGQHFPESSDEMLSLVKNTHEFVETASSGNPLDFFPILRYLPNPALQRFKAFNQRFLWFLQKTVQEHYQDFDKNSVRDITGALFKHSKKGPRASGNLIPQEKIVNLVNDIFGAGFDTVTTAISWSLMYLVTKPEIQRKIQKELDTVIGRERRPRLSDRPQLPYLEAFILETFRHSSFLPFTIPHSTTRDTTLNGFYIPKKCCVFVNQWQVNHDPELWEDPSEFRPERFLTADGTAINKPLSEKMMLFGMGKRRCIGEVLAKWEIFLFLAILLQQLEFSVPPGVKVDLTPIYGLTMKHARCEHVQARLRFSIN
Protocol: as §2

PXR = molecular target: T5, PXR (Homo sapiens, UniProt O75469); assay: PXR activation, luciferase reporter gene assay in HepG2 cells; assay type: cell-based
T5 construct: expressed in transfected cells; host or cells: HepG2 cells, transient electroporation with pSG5-PXR and the CYP3A4-PXRE-LUC reporter
T5 sequence (O75469 1-434): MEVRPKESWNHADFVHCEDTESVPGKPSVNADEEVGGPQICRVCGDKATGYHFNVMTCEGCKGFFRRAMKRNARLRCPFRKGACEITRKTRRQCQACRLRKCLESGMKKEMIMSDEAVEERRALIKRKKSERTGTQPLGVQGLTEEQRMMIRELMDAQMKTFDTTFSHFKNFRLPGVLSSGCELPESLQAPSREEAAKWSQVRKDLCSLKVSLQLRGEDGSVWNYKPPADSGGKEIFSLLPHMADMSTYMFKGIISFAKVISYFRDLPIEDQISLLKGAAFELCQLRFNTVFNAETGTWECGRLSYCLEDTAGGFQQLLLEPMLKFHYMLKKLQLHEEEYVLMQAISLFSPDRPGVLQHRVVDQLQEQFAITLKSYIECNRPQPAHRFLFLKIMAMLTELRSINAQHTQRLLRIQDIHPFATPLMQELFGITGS
Protocol: The modulation of PXR activity by test samples was determined in HepG2 cells transiently transfected with pSG5-PXR (25 μg) and PCR5 plasmid DNA (25 μg) by electroporation at 180 V, 1 pulse for 70 msec. The cells were plated in 96-well plates at a density of 50,000 cells per well. After 24 h, test samples and drug controls were added at various concentrations. After additional 24 hour incubation, the media was aspirated and 40 μL of luciferase reagent (Promega Corporation, Madison, WI, USA) was added to each well and luminescence was measured on Spectramax M5 plate reader (Molecular Devices, Sunnyvale, CA, USA). The fold induction in luciferase activity in the treated cells was calculated in comparison to vehicle treated cells.

[3] = recombinant CYP2C19, co-incubation

T3 sequence (P08684 whole entry): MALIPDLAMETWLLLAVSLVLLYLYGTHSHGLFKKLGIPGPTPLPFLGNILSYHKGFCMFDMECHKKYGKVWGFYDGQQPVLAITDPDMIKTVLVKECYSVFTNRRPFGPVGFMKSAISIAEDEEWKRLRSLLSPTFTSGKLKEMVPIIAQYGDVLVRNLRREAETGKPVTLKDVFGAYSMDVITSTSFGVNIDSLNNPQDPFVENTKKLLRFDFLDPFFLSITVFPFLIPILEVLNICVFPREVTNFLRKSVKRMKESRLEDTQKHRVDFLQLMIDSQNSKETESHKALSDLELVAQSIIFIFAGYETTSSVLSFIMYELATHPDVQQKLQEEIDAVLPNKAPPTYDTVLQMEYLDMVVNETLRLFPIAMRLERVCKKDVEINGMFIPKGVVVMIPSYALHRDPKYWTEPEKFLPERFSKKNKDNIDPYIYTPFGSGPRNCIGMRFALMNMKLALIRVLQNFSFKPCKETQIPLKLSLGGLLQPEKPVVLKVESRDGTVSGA
T2 sequence (P10635 whole entry): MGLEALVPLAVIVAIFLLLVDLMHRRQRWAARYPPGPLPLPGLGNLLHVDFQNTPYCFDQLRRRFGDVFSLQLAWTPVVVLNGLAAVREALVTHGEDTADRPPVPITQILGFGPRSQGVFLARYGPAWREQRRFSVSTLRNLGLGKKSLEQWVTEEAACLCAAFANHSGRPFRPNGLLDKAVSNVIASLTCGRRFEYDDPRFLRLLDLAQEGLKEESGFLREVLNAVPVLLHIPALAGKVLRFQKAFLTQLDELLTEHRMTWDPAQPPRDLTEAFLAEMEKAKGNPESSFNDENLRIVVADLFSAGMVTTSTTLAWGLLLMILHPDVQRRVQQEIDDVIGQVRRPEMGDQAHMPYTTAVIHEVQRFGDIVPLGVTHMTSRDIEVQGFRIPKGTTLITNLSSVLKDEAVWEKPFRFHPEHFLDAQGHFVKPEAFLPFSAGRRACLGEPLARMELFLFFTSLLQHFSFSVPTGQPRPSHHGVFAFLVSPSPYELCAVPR
T1 sequence (P33261 whole entry): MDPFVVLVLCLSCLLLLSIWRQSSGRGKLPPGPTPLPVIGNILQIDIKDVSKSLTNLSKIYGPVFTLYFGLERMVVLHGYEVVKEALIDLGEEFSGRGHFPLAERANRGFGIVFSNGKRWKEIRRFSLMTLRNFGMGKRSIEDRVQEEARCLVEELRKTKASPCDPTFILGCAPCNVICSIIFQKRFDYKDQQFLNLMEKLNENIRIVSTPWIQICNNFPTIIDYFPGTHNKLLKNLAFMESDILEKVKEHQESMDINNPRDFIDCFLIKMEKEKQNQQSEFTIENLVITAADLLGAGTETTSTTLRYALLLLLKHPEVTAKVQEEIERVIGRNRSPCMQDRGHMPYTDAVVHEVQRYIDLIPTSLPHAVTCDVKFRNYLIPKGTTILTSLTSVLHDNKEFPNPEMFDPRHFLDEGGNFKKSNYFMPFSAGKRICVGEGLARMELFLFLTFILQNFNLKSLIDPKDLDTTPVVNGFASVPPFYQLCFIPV

Likelihood of causing HDI (CYP2C19 [1]) | Plasma concentration (CYP2C19 [1]) | Likelihood of causing HDI (CYP2D6) | Plasma concentration (CYP2D6) | IC50 (CYP2C19 [2]; [3]) | IC50 (CYP3A4) | IC50 (CYP1A2) | Induction of PXR activity (PXR; HepG2, 30 μM (highest tested concentration), vs vehicle) | Induction of PXR activity at lower concentration (PXR; HepG2, below 30 μM) | Compound | IC50 (CYP2C19 [2]; human, recombinant CYP2C19, recombinant CYP2C19, co-incubation)
likely | 13220 ng/mL | Remote | 1460 ng/mL | 3.77 µM | 0.3 ± 0.06 µM | 91.1 µM | – | – | CCCC/C=C\CCCCCCCCCc1cc(O)cc(O)c1 [5-[10(Z)-pentadecenyl]resorcinol] | –
likely | 790 ng/mL | unlikely | 1640 ng/mL | 8 µM and 7.99 µM | 26 ± 1.5 µM | 75.4 µM | – | – | CCCC/C=C\CCCCCCCCCC1=C(c2c(O)cc(O)cc2CCCCCCCCC/C=C\CCCC)C(=O)C=C(OC)C1=O [Demethylbelamcandaquinone B] | –
unlikely | 16 ng/mL | unlikely | 16 ng/mL | 17 µM | 4.4 ± 1.3 µM | 47.9 µM | 1.8 fold | not significant | CCCC/C=C\CCCCCCCCCc1cc(O)cc2oc3cc(OC)c(O)c(CCCCCCCCC/C=C\CCCC)c3c12 [Fatimahol] | –

Compound | Likelihood of causing HDI (CYP2C19 [1]) | Plasma concentration (CYP2C19 [1]) | Likelihood of causing HDI (CYP2D6) | Plasma concentration (CYP2D6) | IC50 (CYP2C19 [2]; [3]) | IC50 (CYP3A4) | IC50 (CYP1A2) | Induction of PXR activity (PXR; HepG2, 30 μM (highest tested concentration), vs vehicle) | Induction of PXR activity at lower concentration (PXR; HepG2, below 30 μM) | IC50 (CYP2C19 [2]; human, recombinant CYP2C19, recombinant CYP2C19, co-incubation)
CCCC/C=C\CCCCCCCCCc1cc(O)cc(OC)c1 [Belamcandol B] | likely | – | unlikely | 650 ng/mL | 2.2 ± 0.6 µM | 10 ± 1.3 µM | 220 µM | – | – | 2.2 µg/mL
